Assay: xn = mol fraction of the nth substance listed
Conditions: 101 kPa

O=S(=O)([N-]S(=O)(=O)C(F)(F)F)C(F)(F)F.[Li+] + CC[n+]1ccn(C)c1.O=S(=O)([N-]S(=O)(=O)C(F)(F)F)C(F)(F)F
viscosity [mPa·s]
Conditions | 298.15 K | 313.15 K | 328.15 K | 343.15 K | 358.15 K
x2 = 0.6 | 588 | 225 | 108.2 | 60.8 | 38.3
x2 = 0.7 | 183 | 86.6 | 47.6 | 29.6 | 20.1
x2 = 0.8 | – | 47.5 | 28.5 | 18.8 | –
x2 = 0.9 | 46.6 | 27.4 | 17.8 | 12.42 | 9.08
x2 = 0.95 | 37.4 | 22.7 | 15.1 | 10.69 | 7.96

CC[n+]1ccn(C)c1.O=S(=O)([N-]S(=O)(=O)C(F)(F)F)C(F)(F)F + O=S(=O)([N-]S(=O)(=O)C(F)(F)F)C(F)(F)F.[Li+]
x1 = 1
Conditions | viscosity [mPa·s]
298.15 K | 30.7
328.15 K | 13.1
358.15 K | 7.12

From a compilation of properties of binary mixtures (doi:10.1016/j.jct.2017.08.033)
